Active and inactive are the calls of the source. The calls are words filed in the database; no cut-off is given here.
Columns and labels:
Format in all cases: functional
Echinococcus granulosus [1] = experiment: Parasiticidal activity against Echinococcus granulosus protoscolices assessed as death rate at 1 uM incubated for 48 hrs by eosin exclusion test
Echinococcus granulosus [2] = experiment: Parasiticidal activity against Echinococcus granulosus protoscolices […] by eosin exclusion test; conditions: 1152 h, time 48 day
Echinococcus granulosus [3] = experiment: Inhibition of Echinococcus granulosus

SMILES	Activity (Echinococcus granulosus [1])	LC50 (Echinococcus granulosus [2]) [µM]	LC50 (Echinococcus granulosus [3]) [µM]
COc1ccc(-c2nc(C(=O)Nc3ccc(CN4CCC(N5CCCCC5)CC4)cc3)cc3c2[nH]c2ccccc23)c(OC)c1	Active	13	
COc1cc(-c2nc(NC(=O)c3ccc(CN4CCCN(C)CC4)cc3)cc3c2[nH]c2ccccc23)cc(OC)c1OC	Active	16	
COc1ccc(-c2nc(C(=O)Nc3ccc(CN4CCC(N5CCCCC5)CC4)cc3)cc3c2[nH]c2ccccc23)cc1OC	Active	6.49	
CCCCn1c2ccccc2c2ccnc(-c3ccc(OC)cc3)c21			47.8

Reference: ChEMBL document CHEMBL5344429, “1,3-Substituted β-Carboline Derivatives as Potent Chemotherapy for the Treatment of Cystic Echinococcosis” (J Med Chem, 2023)
